Results taken from ChEMBL document CHEMBL4152332, “Discovery and synthesis of novel magnolol derivatives with potent anticancer activity in non-small cell lung cancer” (Eur J Med Chem, 2018).
In brackets after ≈: the same amount, converted by molar mass. Values belong to the compound of their own block, whether it stands above or below them.

Experiments:
A549 = assay: Antiproliferative activity against human A549 cells after 72 hrs by MTT assay; type: functional, cell-based; conditions: A549, 72 h
[1] = Antiproliferative activity against human SPC-A1 cells after 72 hrs by MTT assay; type: functional, cell-based; conditions: SPCA1, 72 h
NCI-H358 = assay: Antiproliferative activity against human NCI-H358 cells after 72 hrs by MTT assay; type: functional, cell-based; conditions: NCI-H358, 72 h
HCC827 [2] = assay: Antiproliferative activity against human HCC827 cells after 72 hrs by MTT assay; type: functional, cell-based; conditions: HCC827, 72 h
NCI-H460 [3] = assay: Antiproliferative activity against human H460 cells after 72 hrs by MTT assay; type: functional, cell-based; conditions: NCI-H460, 72 h
NCI-H1650 = assay: Antiproliferative activity against human NCI-H1650 cells after 72 hrs by MTT assay; type: functional, cell-based; conditions: NCI-H1650, 72 h
NCI-H1975 [4] = assay: Antiproliferative activity against human NCI-H1975 cells after 72 hrs by MTT assay; type: functional, cell-based; conditions: NCI-H1975, 72 h
NCI-H441 = assay: Antiproliferative activity against human H441 cells after 72 hrs by MTT assay; type: functional, cell-based; conditions: NCI-H441, 72 h
[5] = Apparent aqueous solubility of the compound by HPLC analysis; type: physicochemical; conditions: aqueous solution
PC-9 = assay: Antiproliferative activity against human PC9 cells after 72 hrs by MTT assay; type: functional, cell-based; conditions: PC-9, 72 h
NCI-H1975 [6] = assay: Induction of apoptosis in human NCI-H1975 cells assessed as early apoptotic cells at 10 uM after 48 hrs by annexin V/FITC-propidium iodide staining-based flow cytometric method ( Rvb = 6.09%); type: functional
NCI-H1975 [7] = assay: Cell cycle arrest in human NCI-H1975 cells assessed as accumulation at G0/G1 phase at 10 uM after 24 hrs by propidium iodide staining-based flow cytometric analysis (reference value: 56.11%); type: functional
NCI-H1975 [8] = assay: Cell cycle arrest in human NCI-H1975 cells assessed as accumulation at G2/M phase at 5 uM after 24 hrs by propidium iodide staining-based flow cytometric analysis (reference value: 20.11%); type: functional
NCI-H1975 [9] = assay: Induction of apoptosis in human NCI-H1975 cells assessed as viable cells at 20 uM after 48 hrs by annexin V/FITC-propidium iodide staining-based flow cytometric method ( Rvb = 82.5%); type: functional; conditions: NCI-H1975, 48 h, read-out: Activity
HCC827 [10] = assay: Potency index, ratio of IC50 for magnolol to IC50 for test compound for antiproliferative activity against human HCC827 cells after 72 hrs by MTT assay; type: functional
NCI-H1975 [11] = assay: Induction of apoptosis in human NCI-H1975 cells assessed as late apoptotic cells at 5 uM after 48 hrs by annexin V/FITC-propidium iodide staining-based flow cytometric method ( Rvb = 10.4%); type: functional
NCI-H1975 [12] = assay: Induction of apoptosis in human NCI-H1975 cells assessed as late apoptotic cells at 10 uM after 48 hrs by annexin V/FITC-propidium iodide staining-based flow cytometric method ( Rvb = 10.4%); type: functional
NCI-H1975 [13] = assay: Cell cycle arrest in human NCI-H1975 cells assessed as accumulation at G2/M phase at 10 uM after 24 hrs by propidium iodide staining-based flow cytometric analysis (reference value: 20.11%); type: functional
NCI-H1975 [14] = assay: Induction of apoptosis in human NCI-H1975 cells after 48 hrs by annexin V/FITC-propidium iodide staining-based flow cytometric method; type: functional, cell-based
NCI-H1975 [15] = assay: Induction of apoptosis in human NCI-H1975 cells assessed as necrotic cells at 10 uM after 48 hrs by annexin V/FITC-propidium iodide staining-based flow cytometric method ( Rvb = 1.01%); type: functional
NCI-H1975 [16] = assay: Induction of apoptosis in human NCI-H1975 cells assessed as necrotic cells at 20 uM after 48 hrs by annexin V/FITC-propidium iodide staining-based flow cytometric method ( Rvb = 1.01%); type: functional
NCI-H1975 [17] = assay: Cell cycle arrest in human NCI-H1975 cells assessed as increase in accumulation at G0/G1 phase after 24 hrs by propidium iodide staining-based flow cytometric analysis; type: functional
NCI-H1975 [18] = assay: Induction of apoptosis in human NCI-H1975 cells assessed as necrotic cells at 5 uM after 48 hrs by annexin V/FITC-propidium iodide staining-based flow cytometric method ( Rvb = 1.01%); type: functional
NCI-H1975 [19] = assay: Induction of apoptosis in human NCI-H1975 cells assessed as late apoptotic cells at 20 uM after 48 hrs by annexin V/FITC-propidium iodide staining-based flow cytometric method ( Rvb = 10.4%); type: functional
NCI-H1975 [20] = assay: Potency index, ratio of IC50 for magnolol to IC50 for test compound for antiproliferative activity against human NCI-H1975 cells after 72 hrs by MTT assay; type: functional
NCI-H1975 [21] = assay: Cell cycle arrest in human NCI-H1975 cells assessed as accumulation at G0/G1 phase at 20 uM after 24 hrs by propidium iodide staining-based flow cytometric analysis (reference value: 56.11%); type: functional
NCI-H1975 [22] = assay: Cell cycle arrest in human NCI-H1975 cells assessed as accumulation at S phase at 10 uM after 24 hrs by propidium iodide staining-based flow cytometric analysis (reference value: 22.93%); type: functional
NCI-H1975 [23] = assay: Cell cycle arrest in human NCI-H1975 cells assessed as reduction in accumulation at G2/M phase after 24 hrs by propidium iodide staining-based flow cytometric analysis; type: functional
NCI-H1975 [24] = assay: Cell cycle arrest in human NCI-H1975 cells assessed as accumulation at S phase at 20 uM after 24 hrs by propidium iodide staining-based flow cytometric analysis (reference value: 22.93%); type: functional
Mus musculus = assay: Toxicity in Balb/c mouse implanted with mouse C26 cells assessed as reduction in body weight at 100 mg/kg, po qd treated for 10 days and measured every 2 days; type: organism-based; conditions: in vivo
NCI-H1975 [25] = assay: Induction of apoptosis in human NCI-H1975 cells assessed as viable cells at 10 uM after 48 hrs by annexin V/FITC-propidium iodide staining-based flow cytometric method ( Rvb = 82.5%); type: functional; conditions: NCI-H1975, 48 h, read-out: Activity
NCI-H1975 [26] = assay: Potency index, ratio of IC50 for honokiol to IC50 for test compound for antiproliferative activity against human NCI-H1975 cells after 72 hrs by MTT assay; type: functional
NCI-H1975 [27] = assay: Induction of apoptosis in human NCI-H1975 cells assessed as early apoptotic cells at 20 uM after 48 hrs by annexin V/FITC-propidium iodide staining-based flow cytometric method ( Rvb = 6.09%); type: functional
NCI-H1975 [28] = assay: Cell cycle arrest in human NCI-H1975 cells assessed as accumulation at S phase at 5 uM after 24 hrs by propidium iodide staining-based flow cytometric analysis (reference value: 22.93%); type: functional
HCC827 [29] = assay: Potency index, ratio of IC50 for honokiol to IC50 for test compound for antiproliferative activity against human HCC827 cells after 72 hrs by MTT assay; type: functional
NCI-H1975 [30] = assay: Induction of apoptosis in human NCI-H1975 cells assessed as early apoptotic cells at 5 uM after 48 hrs by annexin V/FITC-propidium iodide staining-based flow cytometric method ( Rvb = 6.09%); type: functional
HUVEC = assay: Antimigratory activity against HUVEC after 24 to 48 hrs by phase contrast/fluorescence microscopic analysis; type: functional, cell-based; conditions: Homo sapiens
NCI-H1975 [31] = assay: Induction of apoptosis in human NCI-H1975 cells assessed as viable cells at 5 uM after 48 hrs by annexin V/FITC-propidium iodide staining-based flow cytometric method ( Rvb = 82.5%); type: functional; conditions: NCI-H1975, 48 h, read-out: Activity
NCI-H460 [32] = assay: Potency index, ratio of IC50 for honokiol to IC50 for test compound for antiproliferative activity against human H460 cells after 72 hrs by MTT assay; type: functional
NCI-H460 [33] = assay: Potency index, ratio of IC50 for magnolol to IC50 for test compound for antiproliferative activity against human H460 cells after 72 hrs by MTT assay; type: functional
NCI-H1975 [34] = assay: Cell cycle arrest in human NCI-H1975 cells assessed as reduction in accumulation at S phase after 24 hrs by propidium iodide staining-based flow cytometric analysis; type: functional
NCI-H1975 [35] = assay: Cell cycle arrest in human NCI-H1975 cells assessed as accumulation at G0/G1 phase at 5 uM after 24 hrs by propidium iodide staining-based flow cytometric analysis (reference value: 56.11%); type: functional
NCI-H1975 [36] = assay: Cell cycle arrest in human NCI-H1975 cells assessed as accumulation at G2/M phase at 20 uM after 24 hrs by propidium iodide staining-based flow cytometric analysis (reference value: 20.11%); type: functional

IC50 (A549): 57.4 µM
IC50 (NCI-H358): 61.2 µM
IC50 (HCC827 [2]): > 40 µM
IC50 (NCI-H460 [3]): > 40 µM
IC50 (NCI-H1650): 56.6 µM
IC50 (NCI-H1975 [4]): > 40 µM
IC50 (NCI-H441): 58.7 µM
solubility [5]: < 10 µg/mL
IC50 (PC-9): 69 µM
Structure (SMILES): C=CCc1ccc(O)c(-c2cc(CC=C)ccc2O)c1 [MAGNOLOL]
IC50 [1]: 78.2 µM

IC50 (A549): 7.46 µM
IC50 (NCI-H358): 9.51 µM
IC50 (HCC827 [2]): 4.87 µM
IC50 (NCI-H460 [3]): 5.71 µM
IC50 (NCI-H1650): 6.93 µM
IC50 (NCI-H1975 [4]): 4.82 µM
IC50 (NCI-H441): 7.48 µM
solubility [5]: 4080 µg/mL (≈ 10.8 mM)
IC50 (PC-9): 11.4 µM
Structure (SMILES): C=CCc1ccc(O)c(-c2cc(CC=C)cc(CN3CCCC(N)C3)c2O)c1 (stereo not drawn)
IC50 [1]: 8.43 µM
Activity (NCI-H1975 [6]): 6.45%
Activity (NCI-H1975 [7]): 70.32%
Activity (NCI-H1975 [8]): 16.05%
viability at 20 µM (NCI-H1975 [9]): 2.02%
Ratio IC50 (HCC827 [10]): 8
Activity (NCI-H1975 [11]): 22.5%
Activity (NCI-H1975 [12]): 28.3%
Activity (NCI-H1975 [13]): 18.21%
Activity (NCI-H1975 [14]): Dose-dependent effect
Activity (NCI-H1975 [15]): 0.65%
Activity (NCI-H1975 [16]): 0.38%
Activity (NCI-H1975 [17]): Dose-dependent effect
Activity (NCI-H1975 [18]): 0.74%
Activity (NCI-H1975 [19]): 57%
Ratio IC50 (NCI-H1975 [20]): 8
Activity (NCI-H1975 [21]): 79.88%
Activity (NCI-H1975 [22]): 9.26%
Activity (NCI-H1975 [23]): Dose-dependent effect
Activity (NCI-H1975 [24]): 4.75%
Activity (Mus musculus): Toxic
viability at 10 µM (NCI-H1975 [25]): 64.6%
Ratio IC50 (NCI-H1975 [26]): 4
Activity (NCI-H1975 [27]): 40.6%
Activity (NCI-H1975 [28]): 16.29%
Ratio IC50 (HCC827 [29]): 4
Activity (NCI-H1975 [30]): 7.56%
Activity (HUVEC): Dose-dependent effect
viability at 5 µM (NCI-H1975 [31]): 69.2%
Ratio IC50 (NCI-H460 [32]): 4
Ratio IC50 (NCI-H460 [33]): 8
Activity (NCI-H1975 [34]): Dose-dependent effect
Activity (NCI-H1975 [35]): 65.67%
Activity (NCI-H1975 [36]): 13.83%
